Tests used:
[1] = system: c-Fos protein expression in the paraventricular nucleus (PVN); assay: HPA axis activation: c-Fos labeling in the PVN; format: in vivo, mouse
[2] = system: circulating corticosterone (CORT); assay: HPA axis activation: circulating CORT measurements; conditions: cotreatment 1 mg kg^−1 i.p. with LEI-401 30 mg kg^−1 i.p.; P = 0.0027

NC(=O)c1cccc(-c2cccc(OC(=O)NC3CCCCC3)c2)c1 [URB597]
effect on LEI-401-induced c-Fos protein expression in PVN ([1]; cotreatment 1 mg kg^−1 i.p. with LEI-401 30 mg kg^−1 i.p., P=0.016): reversed by cotreatment | plasma CORT levels in LEI-401-treated mice on cotreatment [2]: not when cotreated with a FAAH inhibitor

Cc1c(C(=O)NN2CCCCC2)nn(-c2ccc(Cl)cc2Cl)c1-c1ccc(I)cc1 [AM251]
c-Fos protein expression in PVN ([1]; C57BL/6J mice, 3 mg kg^−1 i.p. single dose, 105 min before perfusion, P = 0.011): elevated c-Fos protein expression

From publication PMC7468568 (Nature chemical biology, 2020)
